No end group written: not given here.
How the values were obtained:
[1] = test system: Pg-LPS stimulated THP-1 cells; assay: Cytotoxic evaluation of β-defensin 1 against Pg-LPS-treated THP-1 cells (MTT); type: cell-based, human; settings: β-defensin 1 at 260.85 ng/mL, 24 h, triplicates
Method: (§1) The THP-1 cell line was cultured in DMEM and supplemented with 10% FBS, sodium bicarbonate, L-glutamine, and an antibiotic solution containing penicillin (100 U/mL), amphotericin B (2.5 µg/mL), and streptomycin (100 µg/mL). The cells were maintained in a 5% humidified CO2 incubator (NBS Eppendorf, Germany) at 37°C. To induce differentiation into macrophages, the THP-1 cell line was treated with 25 ng/mL phorbol 12-myristate 13-acetate (PMA) (cat. 91585, Sigma-Aldrich, USA) and incubated for 48 hours. Following incubation, the cells were seeded in a 96-well culture plate at a density of 5x10^4 cells/well and incubated for 24 hours in a humidified 5% CO2 incubator at 37°C.
(§2) Inverted phase contrast microscopy (IPCM) using an Olympus CKX41 microscope (Olympus, Japan) equipped with an Optika Pro5 CCD camera (Optika, Italy) was utilized to directly observe the cells. Cell viability was determined using the MTT (3-(4,5-Dimethylthiazol-2-yl)-2,5-diphenyltetrazolium bromide) assay (Sigma, M-5655). […] The absorbance of this colored solution can be quantified by measuring at approximately 570 nm using a spectrophotometer.
(§3) The whole plate was analyzed under a microscope with an IPCM, and the results were photographed. […] The purple formazan crystals were dissolved in dimethyl sulfoxide (DMSO) and the absorbance (OD) was measured at 570 nm using a microplate reader. […]

[2] = test system: THP-1 cells; assay: Apoptosis by flow cytometry (Annexin V & Dead Cell); type: cell-based, human; settings: β-defensin 1 22.62 ng/mL 24 h after Pg-LPS 1 µg/mL; untreated control 87.25%
Method: Untreated control and Pg-LPS treated wells were also maintained. To the tubes, 100 μL of the Muse™ Annexin V & Dead Cell Reagents were added separately. The tubes were completely mixed by pipetting up and down or spinning at a medium speed for three to five seconds, followed by 20 minutes of incubation in the dark at room temperature. The cells were examined with a Flow Cytometer, gated against untreated control cells, and evaluated for apoptosis with the Muse FCS 3.0 software.
The Muse Annexin V & Dead Cell Kit is a method to analyze cells in various stages of apoptosis, where fluorescently labeled Annexin V binds to phosphatidylserine (PS), which translocates to the outer surface of the cell membrane upon the onset of apoptosis. 7-AAD is excluded from live and healthy cells and permeates late-stage apoptotic and dead cells. […] The result is depicted in Figure 9.

[3] = test system: THP-1 differentiated macrophage cell line; assay: Cytotoxicity evaluation of β-defensin 1 by MTT method; type: cell-based, human; settings: 24 h, 12.5-200 ng/mL
Method: as §1, §2, §3

[4] = test system: MPO; assay: Myeloperoxidase (MPO) activity in lysate of Pg-LPS stimulated THP-1 cells; type: cell-based, human; settings: for MPO Enzyme activity Average / MPO Enzyme activity 1 / MPO Enzyme activity 2: Pg-LPS 1 µg/mL, 24 h; for MPO Enzyme activity Average: mean of duplicates; for MPO Enzyme activity 1: replicate 1; for MPO Enzyme activity 2: replicate 2
Method: For inducing differentiation of THP-1 cells into macrophages, the cell line was premixed with 25 ng/mL PMA and incubated for 48 hours. After incubation, 5x10^4 cells were activated with Pg-LPS (LPS: 1 µg/mL) for one hour. Pg-LPS stimulated cells were exposed to different concentrations (6.25, 12.5, and 25 ng/mL) of β-defensin 1 and incubated for 24 hours. After incubation, the following anti-inflammatory assays were conducted utilizing the cell lysate.
Cell lysate was homogenized in hexadecyltrimethyl ammonium bromide (HTAB) and potassium phosphate buffer. The samples were centrifuged at 2000g for 30 minutes at 4°C and the activity of myeloperoxidase (MPO) enzyme was measured with the supernatant. MPO in the sample was stimulated by adding 50 mM phosphate buffer (pH 6) containing 1.67 mg/mL guaiacol and 0.0005% hydrogen peroxide. The absorbance change at […] was determined. The MPO activity (U) was shown as units per milliliter of cell lysate. At 25 °C, one unit of MPO activity corresponds to the degradation of 1µM peroxide per minute.
where ΔOD is the density change, Vt is the total volume (mL) (1.1 mL ), L is the light path (1 cm), and £470 is the extinction coefficient for tetraguaiacol (26.6 mM^-1·cm^-1).

[5] = molecular docking; cited from earlier work
Excerpt: Two important functions of macrophages are to eliminate pathogens through phagocytosis and apoptosis of inflammatory cells and their subsequent clearance (efferocytosis). The present study analyzed the role of AMP, β-defensin 1, in Pg-LPS-stimulated THP-1 differentiated macrophage cells.

## β-defensin 1: β-Defensin 1 peptide was purchased from ThermoFisher Scientific, USA; cationic antimicrobial peptide (DHYNCVSSGGQCLYSACPIFTKIQGTCYRGKAKCCK; ends and bridges not checked; cysteine pairing not given here; UniProt P60022 33-68, looked up)
[1]; Pg-LPS (1 h) up to 1 µg/mL
  viability (in words): increased the viability of THP-1 cells
[1]; Pg-LPS beyond 1 µg/mL
  viability (in words): decrease in viability
[2]
  live cells: 77.35%
[3]
  cytotoxicity (in words): dose-dependent cytotoxicity
[4]; 6.25 ng/mL
  MPO Enzyme activity Average: 0.02795 U/mL
  MPO Enzyme activity 1: 0.0278 U/mL
  MPO Enzyme activity 2: 0.0281 U/mL
[4]; 12.5 ng/mL
  MPO Enzyme activity Average: 0.021 U/mL
  MPO Enzyme activity 1: 0.0209 U/mL
  MPO Enzyme activity 2: 0.0211 U/mL
[4]; 25 ng/mL
  MPO Enzyme activity Average: 0.01515 U/mL
  MPO Enzyme activity 1: 0.0152 U/mL
  MPO Enzyme activity 2: 0.0151 U/mL
[4]; 6.25, 12.5, and 25 ng/mL, Pg-LPS stimulated
  MPO enzyme activity (in words): decreased in a concentration-dependent manner
[5]
  binding affinity with Pg-LPS (docking): good binding affinity with Pg-LPS
